The text below walks through data of ChEMBL document CHEMBL1146032, “Synthesis and biological activity of nociceptin/orphanin FQ(1-13)NH2 analogues modified in 9 and/or 13 position” (Bioorg Med Chem Lett, 2006).

Type in all cases: functional, tissue-based
Assay [1] concerns the target Nociceptin receptor (Rattus norvegicus) (UniProt P35370). Put plainly: (§1) Activity against LFES-evoked contraction of Wistar rat vas deferens.
The target of assay [2] is T1, Nociceptin receptor (Rattus norvegicus, UniProt P35370). The assay is described as §1.
Assay [3] concerns the target Nociceptin receptor (Rattus norvegicus) (UniProt P35370). Put plainly: Activity against LFES-evoked contraction of Wistar rat vas deferens relative to N/OFQ(1-13)NH2 in presence of naloxone.
Assay [4] has the same target. The assay is described as follows: (§2) Activity against LFES-evoked contraction of Wistar rat vas deferens in presence of naloxone.
Assay [5] has as its target T1, Nociceptin receptor. Described as §2.
Assay [6] addresses Nociceptin receptor (Rattus norvegicus) (UniProt P35370). The assay is described as follows: Activity against LFES-evoked contraction of Wistar rat vas deferens relative to N/OFQ(1-13)NH2.

Several values for one entry are separate records, joined by “and”; a condition that tells them apart may be missing. Equal values may be shown once. Where a SMILES comes first, the peptide text is derived from it. [ ]: non-standard residue; d: D form. Dap = NC[C@H](N)C(=O)O

T1 sequence (P35370 whole entry): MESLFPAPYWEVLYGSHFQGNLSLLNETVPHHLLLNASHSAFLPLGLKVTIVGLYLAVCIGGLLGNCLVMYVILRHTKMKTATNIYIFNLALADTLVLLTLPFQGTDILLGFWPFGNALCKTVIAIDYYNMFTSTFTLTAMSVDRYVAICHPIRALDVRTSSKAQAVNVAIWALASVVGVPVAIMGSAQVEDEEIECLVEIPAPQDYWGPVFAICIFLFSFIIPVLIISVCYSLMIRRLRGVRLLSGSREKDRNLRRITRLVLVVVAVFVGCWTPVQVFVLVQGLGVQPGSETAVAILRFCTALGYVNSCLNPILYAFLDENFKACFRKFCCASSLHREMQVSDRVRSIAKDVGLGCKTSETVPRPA
Nociceptin receptor (Rattus norvegicus), sequence (P35370 whole entry): as above

Take `C[C@H](NC(=O)CNC(=O)[C@@H](NC(=O)[C@H](Cc1ccccc1)NC(=O)CNC(=O)CNC(=O)[C@@H](N)Cc1ccccc1)[C@@H](C)O)C(=O)N[C@@H](CCCN=C(N)N)C(=O)N[C@@H](CN)C(=O)N[C@@H](CO)C(=O)N[C@@H](C)C(=O)N[C@@H](CCCN=C(N)N)C(=O)N[C@@H](CN)C(N)=O` (H-FGGFTGAR[Dap]SAR[Dap]-NH2): the Emax in assay [1] is -54%; in assay [4], -46%. The figures for the EC50 on Nociceptin receptor [2] and at Nociceptin receptor [5] were 2.34 µM and 6.17 µM, respectively. In addition, the figures for the Activity in assay [3] and in assay [6] were 0.06 and 0.25, respectively.
As for `C[C@H](NC(=O)CNC(=O)[C@@H](NC(=O)[C@H](Cc1ccccc1)NC(=O)CNC(=O)CNC(=O)[C@@H](N)Cc1ccccc1)[C@@H](C)O)C(=O)N[C@@H](CCCNC(=N)N)C(=O)N[C@@H](CCCCN)C(=O)N[C@@H](CO)C(=O)N[C@@H](C)C(=O)N[C@@H](CCCNC(=N)N)C(=O)N[C@@H](CCCCN)C(N)=O`, the Emax in assay [1] is -46%; in assay [4], -49%. For the same molecule, the Activity in assay [3] and in assay [6] was 1 in each case.
Consider `C[C@H](NC(=O)CNC(=O)[C@@H](NC(=O)[C@H](Cc1ccccc1)NC(=O)CNC(=O)CNC(=O)[C@@H](N)Cc1ccccc1)[C@@H](C)O)C(=O)N[C@@H](CCCN=C(N)N)C(=O)N[C@@H](CCCN)C(=O)N[C@@H](CO)C(=O)N[C@@H](C)C(=O)N[C@@H](CCCN=C(N)N)C(=O)N[C@@H](CCCCN)C(N)=O`, for which the Emax in assay [1] is -71%; in assay [4] it was -77%. The half-maximal effective concentration (EC50) on Nociceptin receptor [2] was 0.234 µM; at Nociceptin receptor [5], 0.214 µM. Also, the Activity is 1.56 in assay [3] and 2.45 in assay [6].
Regarding `C[C@H](NC(=O)CNC(=O)[C@@H](NC(=O)[C@H](Cc1ccccc1)NC(=O)CNC(=O)CNC(=O)[C@@H](N)Cc1ccccc1)[C@@H](C)O)C(=O)N[C@@H](CCCN=C(N)N)C(=O)N[C@@H](CCCN)C(=O)N[C@@H](CO)C(=O)N[C@@H](C)C(=O)N[C@@H](CCCN=C(N)N)C(=O)N[C@@H](CCCN)C(N)=O`, the Emax in assay [1] is -56%; in assay [4] it was -70%. Besides, the EC50 was 0.407 µM at Nociceptin receptor [2] and 0.977 µM at Nociceptin receptor [5]. Besides, the Activity came to 2.45 in assay [3] and 1.41 in assay [6].
`C[C@H](NC(=O)CNC(=O)[C@@H](NC(=O)[C@H](Cc1ccccc1)NC(=O)CNC(=O)CNC(=O)[C@@H](N)Cc1ccccc1)[C@@H](C)O)C(=O)N[C@@H](CCCN=C(N)N)C(=O)N[C@@H](CCCCN)C(=O)N[C@@H](CO)C(=O)N[C@@H](C)C(=O)N[C@@H](CCCN=C(N)N)C(=O)N[C@@H](CCCN)C(N)=O`: the Emax is -60% and -57% in assay [1]; -33% and -49% in assay [4]. The concentration for a half-maximal effect (EC50) at Nociceptin receptor [2] is 6.17 µM and 11.2 µM; at Nociceptin receptor [5] it was 9.33 µM and 11 µM. Also, the Activity in assay [3] is 0.04; in assay [6], 0.09 and 0.05.
